Experimental data: PubChem BioAssay (NCI)
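Five compound concentrations were applied to cells in 96-well plates for 48 hours; endpoints were derived by simple linear interpolation of the resulting dose-response curve. Here, GI50 denotes the concentration required for 50% inhibition of growth. Definition used: TGI = concentration required for complete inhibition of growth.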

Assays:
Assay in all cases: NCI-60 cell line screen, 48 h
NCI-H23 lung = system: NCI-H23 lung
NCI-H460 lung = system: NCI-H460 lung
NCI-H522 lung = system: NCI-H522 lung
NCI/ADR-RES ovarian = system: NCI/ADR-RES ovarian
OVCAR-3 ovarian = system: OVCAR-3 ovarian
OVCAR-4 ovarian = system: OVCAR-4 ovarian
OVCAR-5 ovarian = system: OVCAR-5 ovarian
OVCAR-8 ovarian = system: OVCAR-8 ovarian
PC-3 prostate = system: PC-3 prostate
RPMI-8226 leukemia = system: RPMI-8226 leukemia
RXF 393 renal = system: RXF 393 renal
SF-268 CNS = system: SF-268 CNS
SF-295 CNS = system: SF-295 CNS
SF-539 CNS = system: SF-539 CNS
SK-MEL-2 melanoma = system: SK-MEL-2 melanoma
SK-MEL-28 melanoma = system: SK-MEL-28 melanoma
SK-MEL-5 melanoma = system: SK-MEL-5 melanoma
SK-OV-3 ovarian = system: SK-OV-3 ovarian
SN12C renal = system: SN12C renal
SNB-19 CNS = system: SNB-19 CNS
SNB-75 CNS = system: SNB-75 CNS
SR leukemia = system: SR leukemia
SW-620 colon = system: SW-620 colon
T-47D breast = system: T-47D breast
TK-10 renal = system: TK-10 renal
U251 CNS = system: U251 CNS
UACC-257 melanoma = system: UACC-257 melanoma
UACC-62 melanoma = system: UACC-62 melanoma
UO-31 renal = system: UO-31 renal

Structure (SMILES): C[C@@H](Oc1ccc(C(=O)NS(=O)(=O)C(C)(C)C)cc1C(F)(F)F)c1ccc(Oc2ccccc2)cn1
- GI50 (NCI-H23 lung): 5.14 µM
- TGI (NCI-H23 lung): 23.3 µM
- GI50 (NCI-H460 lung): 3.7 µM
- TGI (NCI-H460 lung): 13.3 µM
- GI50 (NCI-H522 lung): 1.3 µM
- TGI (NCI-H522 lung): 5.63 µM
- GI50 (NCI/ADR-RES ovarian): 3.7 µM
- TGI (NCI/ADR-RES ovarian): 17.2 µM
- GI50 (OVCAR-3 ovarian): 1.88 µM
- TGI (OVCAR-3 ovarian): 5.47 µM
- GI50 (OVCAR-4 ovarian): 4.85 µM
- TGI (OVCAR-4 ovarian): 19.7 µM
- GI50 (OVCAR-5 ovarian): 3.46 µM
- TGI (OVCAR-5 ovarian): 14 µM
- GI50 (OVCAR-8 ovarian): 3.27 µM
- TGI (OVCAR-8 ovarian): 12.4 µM
- GI50 (PC-3 prostate): 3.1 µM
- TGI (PC-3 prostate): 16.1 µM
- GI50 (RPMI-8226 leukemia): 2.95 µM
- TGI (RPMI-8226 leukemia): 9.87 µM
- GI50 (RXF 393 renal): 2.25 µM
- TGI (RXF 393 renal): 8.95 µM
- GI50 (SF-268 CNS): 3.54 µM
- TGI (SF-268 CNS): 17.8 µM
- GI50 (SF-295 CNS): 2.21 µM
- TGI (SF-295 CNS): 6.89 µM
- GI50 (SF-539 CNS): 2.1 µM
- TGI (SF-539 CNS): 5.62 µM
- GI50 (SK-MEL-2 melanoma): 6.56 µM
- TGI (SK-MEL-2 melanoma): 23.3 µM
- GI50 (SK-MEL-28 melanoma): 6.63 µM
- TGI (SK-MEL-28 melanoma): 21.8 µM
- GI50 (SK-MEL-5 melanoma): 1.68 µM
- TGI (SK-MEL-5 melanoma): 4.75 µM
- GI50 (SK-OV-3 ovarian): 3.73 µM
- TGI (SK-OV-3 ovarian): 15.2 µM
- GI50 (SN12C renal): 4.58 µM
- TGI (SN12C renal): 18.6 µM
- GI50 (SNB-19 CNS): 3.02 µM
- TGI (SNB-19 CNS): 14 µM
- GI50 (SNB-75 CNS): 2.04 µM
- TGI (SNB-75 CNS): 10.8 µM
- GI50 (SR leukemia): 1.29 µM
- TGI (SR leukemia): 13.7 µM
- GI50 (SW-620 colon): 3.18 µM
- TGI (SW-620 colon): 14.6 µM
- GI50 (T-47D breast): 4.46 µM
- TGI (T-47D breast): 32.5 µM
- GI50 (TK-10 renal): 3.05 µM
- TGI (TK-10 renal): 14.7 µM
- GI50 (U251 CNS): 3.18 µM
- TGI (U251 CNS): 13.6 µM
- GI50 (UACC-257 melanoma): 11.9 µM
- TGI (UACC-257 melanoma): 32.7 µM
- GI50 (UACC-62 melanoma): 3.09 µM
- TGI (UACC-62 melanoma): 19.8 µM
- GI50 (UO-31 renal): 4.78 µM
- TGI (UO-31 renal): 19.9 µM
